In patent US20260263584A1, “Modulating the Innate Immunity of RNA” (priority 2023, published 2026):

Tests used:
A/Wisconsin/588/2019 = experiment: NHP immunogenicity, 1-Day influenza microneutralization assay (MNT); type: in vivo, Cyno macaques
Description: The influenza virus microneutralization assay (MNT) quantitatively measures functional antibodies in serum that neutralize influenza virus activity, preventing productive infection of a host cell monolayer. A neutralization reaction occurs when influenza virus is incubated with serum samples; this reaction mixture is then applied to a monolayer of Madin-Darby Canine Kidney (MDCK) cells to measure the extent of neutralization. MNT titers are reported as the reciprocal of the dilution that results in 50% or 90% reduction in infection when compared to a no serum control. The 1-Day MNT measures anti-HA neutralizing antibodies.

Hela cells [1] = experiment: Single-molecule RNA FISH, internalization of saRNA-LNP; type: cell-based, human; settings: smFISH, FIG. 10B
Description: Cells incubated with saRNA-LNP with or without PF-01009329 were washed with PBS, fixed with freshly prepared 4% paraformaldehyde for 10 minutes, quenched, washed three times with PBS, and permeabilized with 0.1% Triton X-100 for 10 minutes. After washing the cells with PBS, pre-hybridization buffer was added for 30 minutes. The supernatant was removed, and HA-CAL Fluor Red 590 Dye probe (Stellaris) was diluted in hybridization buffer (250 nM/well) and incubated with cells for 3 hours at 37° C. The supernatant was removed, washed by incubating pre-hybridization buffer for 10 min. Cells were then washed two times with PBS. Finally, cells were incubated with DAPI (0.5 μg/mL) to stain the nuclei and CellMask Deep Red (1/140,000) to stain the cytoplasm.

A549s = experiment: Antigen-positive cells after RNA-LNP co-treatment in A549s; type: cell-based; settings: data not shown
Hela cells [2] = type: cell-based, human; parameters: increase of the HA GMFI compared to transfecting with saRNA alone / increase of percentage of antigen-positive cells vs. saRNA with DMSO control / increase of HA antigen expression from modRNA and (un)modified saRNA: unit of the concentration uncertain

## COc1cc2nc(N3CCN(c4nc(N)c5cc(OC)c(OC)cc5n4)CC3)nc(N)c2cc1OC [PF-01009329, 2,2′-(piperazine-1,4-diyl)bis(6,7-dimethoxyquinazolin-4-amine)]
A/Wisconsin/588/2019; 50% m1ψ modified saRNA-HA-NA, co-administered PF-06650833 3.125 μg or PF-01009329 0.14 μg, Day 42
  improved immunogenicity over modified saRNA alone: 8 fold
A/Wisconsin/588/2019; saRNA-HA-NA incorporating 50% m1ψ and 100% m5C, 2 weeks post dose 2
  neutralizing antibody response compared to 50% m1ψ saRNA-HA-NA+PF-01009329: comparable neutralizing antibody response
A/Wisconsin/588/2019; unmodified saRNA-HA-NA 2.5 μg IM Days 0 and 28, co-administered PF-06650833 3.125 μg or PF-01009329 0.14 μg, Day 42
  immune response (neutralizing antibodies, MNT) compared to saRNA-HA-NA vaccination alone: comparable immune response
A/Wisconsin/588/2019; unmodified saRNA-HA-NA, 2 out of 5 animals, Day 42
  neutralizing titers higher than the saRNA group: more than 8 fold
A/Wisconsin/588/2019; unmodified saRNA-HA-NA, Day 42
  geometric mean titer higher than the saRNA-HA-NA alone: less than 2 fold
Hela cells [1]; 4 hours post transfection, 1.8, 0.6, 0.2 mM
  cellular internalization of saRNA-LNP: higher cellular internalization
Hela cells [1]; 4 hours post transfection
  cytoplasmic distribution of saRNA: dose-dependent cytoplasmic distribution
A549s
  enhancement of modRNA and bicistronic saRNA performance, percentage of antigen-positive cells: ≤ 16 fold
Hela cells [2]; HeLa, FIGS. 5 & 9
  enhancement of modRNA and bicistronic saRNA performance, percentage of antigen-positive cells: up to 11 fold
Hela cells [2]; HeLa, LNP doses of 62 ng or higher, co-formulation and admixture, FIG. 8
  relative HA expression, GMFI of HA immunostaining: elevated GMFI values
Hela cells [2]; HeLa, compound at 1.8 (unit uncertain), rabbit polyclonal antibodies used to detect HA, FIG. 4
  increase of HA antigen expression from modRNA and (un)modified saRNA: ~ 6 fold
Hela cells [2]; HeLa, compound incorporated into LNPs, FIG. 6
  HA and NA expression, as measured via GMFI: trend towards higher overall GOI expression
Hela cells [2]; HeLa, saRNA-LNPs co-formulated with the hydrate form, FIG. 8
  percentage of cells expressing HA: dose dependent increases
Hela cells [2]; Hela, HA encoding saRNA, compound at 0.9 (unit uncertain)
  increase of percentage of antigen-positive cells vs. saRNA with DMSO control: 28 fold
Hela cells [2]; […], exception co-formulated PF-07875246/ALC-0159 with 50% m1ψ, HA
  transfection efficiency (% HA or NA positive cells): increased transfection efficiency across all LNP compositions assayed
Hela cells [2]; at much lower concentration than that of PF-01034118, FIG. 3
  effect on HA antigen expression and saRNA transcription: potent effect
